Here are results for 20 molecules from patent US12410411B2, “Biocatalytic techniques” (HYPHA DISCOVERY LIMITED, priority 2019, dated 2025).

For assay [1], the system named is P450SeuC10. The assay is described as follows: Whole-cell biotransformation in E. coli expressing P450SeuC10, ferredoxinSeuF08 and ferredoxin reductaseSCF15A (Example 4B). The assay is classed as cell-based, Streptomyces eurythermus NRRL 2539. Particulars: for inferred yield of oxidised product (UPLC-MS): product formed from parent substrate dosed at 100 mg/L, E. coli whole cells, 100 μL screening scale; for Overall % conversion to oxidised products: SeuC10, E. coli whole cells, 0.1 mg/ml substrate, 27° C., pH 7.4. An excerpt: Cell pellets were provided as in Example 2. […] Reactions were stopped and analysed as in Example 4.

Assay [2] deals with P450SeuC10. Briefly: Oxidase activity/spectrum testing with lyophilised material containing P450SeuC10, ferredoxinSeuF08 and ferredoxin reductaseSCF15A (Example 4A). It is filed as biochemical, Streptomyces eurythermus NRRL 2539. Particulars: for Overall % conversion to oxidised products: SeuC10, lyophilised material, 0.1 mg/ml substrate, 27° C., 16-20 hours, pH 8.0, UPLC-MS; for inferred yield of oxidised product (UPLC-MS): product formed from parent substrate dosed at 100 mg/L, lyophilised material, 100 μL screening scale. The method, then:
Suspended cell pellets were provided as described in Example 2, containing recombinant P450, ferredoxin and ferredoxin reductase in 100 mM potassium phosphate buffer pH 8.0, 5 mM MgCl2, 5 mM TCEP, and 1 mM PMSF in a ratio of 3.0 ml of buffer per 1 g of cells. Lysed cells were produced by high pressure disruption using three cycles of 30 kpsi. Lysed material was centrifuged at 38,000×g for 40 minutes (4° C.) and the supernatant was sterilized by passing through a 0.2 micron filter to provide the cell-free enzyme preparation containing recombinant P450, ferredoxin and ferredoxin reductase.
(§1) Lyophilised material of recombinant P450, ferredoxin and ferredoxin reductase proteins was made as described in Example 3 and reconstituted in high purity water to the original volume. Biocatalysis was performed shaking at 27° C. in the following conditions: 100 mM potassium phosphate pH 8.0, 5 mM MgCl2 (both present in the reconstituted enzyme preparation) and 0.1 mg/ml substrate compound such as carbamazepine, bosentan, diclofenac, meloxicam, tivantinib or ambroxide.
(§2) Concentrations of P450, ferredoxin and ferredoxin reductase were as extracted (Example 3). Reactions were initiated by addition of 10× stock of cofactor mixture (50 mM G6P, 10 mM NADP, 10 UN/ml G6PDH) to provide a final volume of e.g., 10 μL to 90 μL for 100 μL total reaction volumes. After 16-20 hours, reactions were extracted with an equal volume of acetonitrile, centrifuged to remove precipitated proteins and conversion assessed by UPLC-MS analysis.
UPLC data were obtained as follows:
Column: Acquity UPLC BEH Shield RP18 1.7 μm 2.1 mm i.d. 50 mm length
Solvents: H2O, B: Acetonitrile, both with 0.1% Formic acid
Detector: Waters Acquity UPLC PDA (UV-Vis detection) and Waters Acquity UPLC QDA (MS)

In another assay the test system is SriC12. Briefly: Substrate testing with lyophilised material containing SriC12 (Example 5, method of Example 4A). Particulars: 0.1 mg/ml substrate. It is filed as biochemical, Streptomyces rimosus NRRL 2234. How it is done: as §1, §2
(§3) Other cytochrome P450 enzymes were expressed as described above, and their activities tested against the same substrates as P450SeuC10 using the methods described in Example 4. The other P450s tested were: P450AluC09 from Amycolatopsis lurida NRRL 2430 (SEQ ID NO: 13, see WO 2018/091885); SriC12 from Streptomyces rimosus NRRL 2234 (SEQ ID NO: 14, see WO 2020/109776); SriC20 from Streptomyces rimosus NRRL 2234 (SEQ ID NO: 15, see WO 2020/109776); SriC22 from Streptomyces rimosus NRRL 2234 (SEQ ID NO: 16, see WO 2020/109776); and CYP107L from Streptomyces platensis DSM 40041 (SEQ ID NO: 17, see Worsch et al., Biotechnology and Bioengineering 115: 2156-2166, 2018).

The test system of another assay is SriC20. The assay is described as follows: Substrate testing with lyophilised material containing SriC20 (Example 5, method of Example 4A). The assay is classed as biochemical, Streptomyces rimosus NRRL 2234. The following applies: 0.1 mg/ml substrate. The method, then: as §1, §2, §3
The subject of assay [3] is P450AluC09. Briefly: Substrate testing with lyophilised material containing P450AluC09 (Example 5, method of Example 4A). It is filed as biochemical, Amycolatopsis lurida NRRL 2430. Particulars: AluC09, lyophilised material, 0.1 mg/ml substrate. The method, then:
as §1, §2, §3

In a further assay the test system is SriC22. The assay is described as follows: Substrate testing with lyophilised material containing SriC22 (Example 5, method of Example 4A). It is filed as biochemical, Streptomyces rimosus NRRL 2234. Particulars: 0.1 mg/ml substrate. How it is done: as §1, §2, §3
In assay [4] the test system is P450AluC09. Briefly: Substrate testing with whole cells containing P450AluC09 (Example 5, method of Example 4B). The assay is classed as cell-based, Amycolatopsis lurida NRRL 2430. Particulars: AluC09, whole cells, 0.1 mg/ml substrate. How it is done: Cell pellets were provided as in Example 2. The cell pellets were defrosted, washed with 0.85% NaCl buffer and centrifuged at 4,000 RCF, 30 minutes at 4° C. The supernatant was discarded and the pellet was flash frozen in liquid nitrogen. The pellet was allowed to defrost again and resuspended in 40 mL of buffer containing 50 mM potassium phosphate, pH 7.4, 5 mM MgCl2 and 100 mM glucose. Biocatalysis was performed shaking at 27° C. with 0.1 mg/ml substrate compound such as carbamazepine, bosentan, diclofenac, meloxicam, tivantinib, ambroxide or others as shown in Table 2. Reactions were stopped and analysed as in Example 4.
as §3

Take `O=C(O)Cc1ccccc1Nc1c(Cl)cc(O)cc1Cl` [4′-hydroxydiclofenac]: in the assay on P450SeuC10 [1], the “inferred yield of oxidised product (UPLC-MS)” value (“inferred yield” for short) is recorded as 73.4%.

Consider `NC(=O)N1c2ccccc2C=Cc2ccccc21` [Carbamazepine], for which the “Overall % conversion to oxidised products” value (shortened to “Overall % conversion”) in the assay on P450SeuC10 [2] turned out to be 49.2%; in the assay with SriC12, 3.2%; with SriC20, 0%; in the assay with P450AluC09 [3], 0%; with SriC22, 0%.

`COc1ccccc1Oc1c(NS(=O)(=O)c2ccc(C(C)(C)C)cc2)nc(-c2ncccn2)nc1OCCO` [Bosentan]: the figures for the “Overall % conversion” value in the assay with P450AluC09 [4] and in the assay with P450SeuC10 [1] were 100% and 87.1%, respectively.

Take `NC(=O)N1c2ccccc2C2OC2c2ccccc21` (stereo not drawn) [carbamazepine-10,11-epoxide]: the “inferred yield” value in the assay on P450SeuC10 [2] is reported as 49%.

`CC(C)(C)[C@H]1CC[C@H](CC2=C(O)C(=O)c3ccccc3C2=O)CC1` [Buparvaquone]: the results for the “Overall % conversion” value in the assay on P450AluC09 [4] and in the assay with P450SeuC10 [1] were 48.8% and 23.4%, respectively.

For `O=C(O)Cc1cc(O)ccc1Nc1c(Cl)cccc1Cl` [5-hydroxydiclofenac], the “inferred yield” value in the assay on P450SeuC10 [1] is on record as 19.4%.

Regarding `CC(C)c1nc(CN(C)C(=O)N[C@H](C(=O)N[C@@H](Cc2ccccc2)C[C@H](O)[C@H](Cc2ccccc2)NC(=O)OCc2cncs2)C(C)C)cs1` [Ritonavir], the “Overall % conversion” value was 86.3% in the assay with P450AluC09 [4] and 21.6% in the assay with P450SeuC10 [1].

In the case of `CCCCNC(=O)NS(=O)(=O)c1ccc(C)cc1` [Tolbutamide], the “Overall % conversion” value in the assay on P450SeuC10 [2] is listed as 21%; in the assay on SriC12, 34%; in the assay on SriC20, 0%; with P450AluC09 [3] it was 0%; with SriC22 it was 0%.

With `CC1(C)CCC[C@]2(C)[C@H]3CCO[C@]3(C)CC[C@@H]12` [Ambroxide], the “Overall % conversion” value came to 72.8% in the assay on P450SeuC10 [2]; 0% in the assay on SriC12; 0% in the assay with SriC20; 0% in the assay on P450AluC09 [3]; 0% in the assay with SriC22.

`COc1ccccc1Oc1c(NS(=O)(=O)c2ccc(C(C)(C)CO)cc2)nc(-c2ncccn2)nc1OCCO` [hydroxy-bosentan]: the “inferred yield” value in the assay with P450SeuC10 [1] was 81%.

For `CCC[C@H](N[C@@H](C)C(=O)N1[C@H](C(=O)O)C[C@@H]2CCCC[C@@H]21)C(=O)OCC` [Perindopril], the “Overall % conversion” value amounted to 0% in the assay with P450AluC09 [4] and 14.4% with P450SeuC10 [1].

With `CN1C(C(=O)Nc2ncc(CO)s2)=C(O)c2ccccc2S1(=O)=O` [5′-hydroxymethylmeloxicam], the “inferred yield” value in the assay with P450SeuC10 [2] is given as 28.4%.

`N#CC[C@H](C1CCCC1)n1cc(-c2ncnc3[nH]ccc23)cn1` [Ruxolitinib]: the “Overall % conversion” value with P450AluC09 [4] worked out at 34.3%; in the assay with P450SeuC10 [1], 38.6%.

As to `CC(C)(C)c1ccc(S(=O)(=O)Nc2nc(-c3ncccn3)nc(OCCO)c2Oc2ccccc2O)cc1` [O-desmethylbosentan], in the assay with P450SeuC10 [1], the “inferred yield” value stood at 3.4%.

Turning to `CCCCCCCCCCCCCCCC(=O)O` [Palmitic acid], the “Overall % conversion” value in the assay with P450SeuC10 [2] amounted to 70.2%; in the assay with SriC12 it was 35.5%; in the assay with SriC20, 0%; in the assay on P450AluC09 [3], 28.5%; in the assay with SriC22 it was 0%.

On to `CN1C(C(=O)Nc2ncc(C(=O)O)s2)=C(O)c2ccccc2S1(=O)=O` [5′-carboxylmeloxicam], for which the “inferred yield” value in the assay with P450SeuC10 [2] worked out at 5.3%.

For the molecule `C/C(=C\c1csc(C)n1)[C@@H]1C[C@@H]2O[C@]2(C)CCC[C@H](C)[C@H](O)[C@@H](C)C(=O)C(C)(C)[C@@H](O)CC(=O)O1` [Epothilone B], the “Overall % conversion” value in the assay on P450SeuC10 [2] stood at 35.1%; in the assay with SriC12, 2%; in the assay with SriC20, 0%; with P450AluC09 [3], 46%; in the assay on SriC22, 0%.

In the case of `Cc1ccc(-n2nc(C(C)(C)C)cc2NC(=O)Nc2ccc(OCCN3CCOCC3)c3ccccc23)cc1` [BIRB796], the “Overall % conversion” value is listed as 5.2% in the assay with P450AluC09 [4] and 19.3% in the assay with P450SeuC10 [1].

Take `O=C(O)Cc1ccccc1Nc1c(Cl)cccc1Cl` [Diclofenac]: the “Overall % conversion” value came to 98.3% with P450SeuC10 [2]; 33.9% in the assay with SriC12; 0% in the assay with SriC20; 89.9% in the assay on P450AluC09 [3]; 0.9% with SriC22.

Consider `Fc1ccc(C(OCCN2CCN(CCCc3ccccc3)CC2)c2ccc(F)cc2)cc1` [Vanoxerine], for which the “Overall % conversion” value with P450AluC09 [4] is reported as 0%; with P450SeuC10 [1] it was 26.5%.
